The values below come from article PMC8159961, “Exploring protein hotspots by optimized fragment pharmacophores” (Nature Communications, 2021).

“And” between values parts separate entries of the source, which are not always exact repeats. Identical values can stand only once. Like-named read-outs stand apart in the source and are kept apart here.

The target in test [1] is T1, human thrombin (Homo sapiens, UniProt P00734).
T1 construct: human thrombin; purchased Sigma-Aldrich
Nature of the test: Protease inhibitory assay, chromogenic substrate S-2238. It counts as biochemical. The following applies: for vinit: replicate values; for Ki: Thrombin, one of two values averaged in Supplementary Data 1, read-out: Ki.

The target of test [2] is T2, bovine factor Xa (Bos taurus, UniProt P00743).
T2 construct: bovine factor Xa, Chromogenix, 2 nkat/mL; purchased Chromogenix
Nature of the test: Protease inhibitory assay, chromogenic substrate S-2222. It counts as biochemical. The following applies: cmpd conc 200 µM; for vinit: replicate values; for Ki: FactorXa, one of two values averaged in Supplementary Data 1, read-out: Ki.

Where [3] appears, read: Thrombin Ki determination, substrate 20 µM, cmpd conc 200 µM.
The mark [4] stands for this setting: Thrombin Ki determination, substrate 40 µM, cmpd conc 200 µM.
[5] abbreviates: Thrombin primary screening, substrate 40 µM, cmpd conc 500 µM.
Where [6] appears, read: substrate 20 µM, cmpd conc 200 µM.
[7] abbreviates: substrate 40 µM, cmpd conc 200 µM.
[8] abbreviates: FactorXa primary screening, substrate 100 µM.
Setting [9] is: FactorXa Ki determination, substrate 100 µM.
Setting [10] is: FactorXa Ki determination, substrate 200 µM.

T2 sequence (P00743 234-492 limits assumed): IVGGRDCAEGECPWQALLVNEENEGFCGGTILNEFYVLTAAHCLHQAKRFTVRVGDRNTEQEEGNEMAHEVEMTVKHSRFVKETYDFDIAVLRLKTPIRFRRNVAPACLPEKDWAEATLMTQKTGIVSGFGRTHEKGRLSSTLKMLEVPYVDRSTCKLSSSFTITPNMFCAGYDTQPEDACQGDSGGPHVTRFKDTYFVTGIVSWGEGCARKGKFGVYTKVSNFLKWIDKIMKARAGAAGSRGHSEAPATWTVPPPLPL
T2 sequence (P00743 41-180 partner limits assumed): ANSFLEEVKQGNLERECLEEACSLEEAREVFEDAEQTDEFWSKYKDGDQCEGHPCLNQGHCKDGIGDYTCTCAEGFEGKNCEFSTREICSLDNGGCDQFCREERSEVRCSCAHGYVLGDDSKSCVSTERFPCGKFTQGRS

As for `NC(=O)N1CCC(C(=O)O)CC1` [SX-D12], the “V0 / Vi” value was found to be 1.08 in test [1] (setting [3]), 1.04 in test [1] (setting [4]), 1.12 in test [1] (setting [5]) and 1.16 in test [2] (setting [8]). The results for the “vinit, avrg.” value in test [1] (setting [3]) and in test [1] (setting [4]) were 24.461 and 32.560, respectively. The vinit was 23.803 and 25.267 and 24.313 in test [1] (setting [3]); 34.041 and 32.608 and 31.031 in test [1] (setting [4]); 28.036 and 28.145 in test [1] (setting [5]); 11.2 and 13.7 in test [2] (setting [8]). Moreover, the Ki – broadly, a dissociation constant, usually derived from enzyme kinetics or from competition with a known ligand – in test [1] (setting [6]) came to 273 µM; in test [1] (setting [7]), 329 µM.

Take `CC(=O)c1sc(-c2ccc(O)cc2)nc1C` [SX-E1]: the “V0 / Vi” value in test [1] (setting [3]) is 1.09; in test [1] (setting [4]) it was 1.06; in test [1] (setting [5]) it was 1.10; in test [2] (setting [9]) it was 1.16; in test [2] (setting [10]), 1.13; in test [2] (setting [8]), 1.17. Besides, the “vinit, avrg.” value was 24.296 in test [1] (setting [3]), 31.885 in test [1] (setting [4]) and 14.048 in test [2] (setting [9]). In addition, the vinit in test [1] (setting [3]) is 24.026 and 25.131 and 23.73; in test [1] (setting [4]), 32.585 and 30.957 and 32.11; in test [1] (setting [5]) it was 25.309 and 28; in test [2] (setting [9]), 13.804 and 13.836 and 14.50; in test [2] (setting [10]) it was 32.734 and 31.114 and 32.88; in test [2] (setting [8]), 15.455 and 14.545. In addition, the Ki turned out to be 251 µM in test [1] (setting [6]), 207 µM in test [1] (setting [7]), 781 µM in test [2] (substrate 100 µM) and 687 µM in test [2] (substrate 200 µM).

Take `O=C(c1ccncc1)N1CCNCC1` [SX-E2]: the “V0 / Vi” value was 0.93 in test [1] (setting [5]) and 0.96 in test [2] (setting [8]). Besides, the vinit in test [1] (setting [5]) was 31.236 and 31.673; in test [2] (setting [8]) it was 17.673 and 18.8.

Turning to `CC1C(=O)NC(=O)N1c1ccc(Cl)cc1` (stereo not shown) [SX-E3], in test [1] (setting [5]), the “V0 / Vi” value is 0.98; the vinit is 29.964 and 29.673. For the same compound, in test [2] (setting [8]), the “V0 / Vi” value turned out to be 1.01; the vinit is 17.673 and 16.982.

Turning to `CCN(CC)c1cccc(C)c1` [SX-E4], in test [1] (setting [5]), the “V0 / Vi” value worked out at 0.95; the vinit is 31.418 and 31.2. In test [2] (setting [8]), the “V0 / Vi” value is 0.95; the vinit was 17.571 and 18.5.

Consider `O=C(CN1CCNCC1)c1ccccc1` [SX-E5], for which, in test [1] (setting [5]), the “V0 / Vi” value was determined as 1.06; the vinit was 28.618 and 27.418. In test [2] (setting [8]), the “V0 / Vi” value worked out at 0.97; the vinit was 18.286 and 17.357.

As for `Clc1ccc2nnnn2n1` [SX-E6], the “V0 / Vi” value came to 0.99 in test [1] (setting [5]) and 1.12 in test [2] (setting [8]). In addition, the vinit in test [1] (setting [5]) was 32.073 and 28.473; in test [2] (setting [8]), 15.357 and 15.429.

With `c1cnc2c(c1)NCCC2` [SX-E7], in test [1] (setting [5]), the “V0 / Vi” value was found to be 0.93; the vinit was 33.927 and 32.545. Besides, in test [2] (setting [8]), the “V0 / Vi” value was found to be 0.98; the vinit is 18.836 and 17.745.

Turning to `COc1cccc(NC2=NCCCCC2)c1` [SX-E8], in test [1] (setting [5]), the “V0 / Vi” value was found to be 0.88; the vinit was 35.818 and 34.764. Moreover, in test [2] (setting [8]), the “V0 / Vi” value was found to be 0.96; the vinit is 18.764 and 18.473.

Regarding `O=C(O)C1CCN(c2ncccn2)CC1` [SX-E9], the “V0 / Vi” value in test [1] (setting [3]) stood at 1.35; in test [1] (setting [4]), 1.14; in test [1] (setting [5]), 1.21; in test [2] (setting [8]) it was 1.08. For the same compound, the “vinit, avrg.” value in test [1] (setting [3]) is 19.600; in test [1] (setting [4]), 29.629. Also, the vinit in test [1] (setting [3]) is 19.72 and 18.944 and 20.14; in test [1] (setting [4]), 27.932 and 30.186 and 30.77; in test [1] (setting [5]), 27.382 and 24; in test [2] (setting [8]), 16.073 and 17.018. The Ki came to 65 µM in test [1] (setting [6]) and 87 µM in test [1] (setting [7]).

Turning to `N#Cc1ccc(C(=O)N2CCOCC2)cc1` [SX-E10], in test [1] (setting [5]), the “V0 / Vi” value came out at 1.00; the vinit is 33.091 and 29.782. For the same compound, in test [2] (setting [8]), the “V0 / Vi” value is given as 1.00; the vinit is 14.2 and 14.8.

For `Oc1ccc(C2CCNCC2)cc1` [SX-E11], in test [1] (setting [5]), the “V0 / Vi” value was determined as 1.00; the vinit was 31.345 and 31.818. Also, in test [2] (setting [8]), the “V0 / Vi” value is 0.73; the vinit is 18.742 and 20.658.

Consider `O=C(c1ccccc1F)N1CCNCC1` [SX-E12], for which the “V0 / Vi” value in test [1] (setting [5]) worked out at 0.98; in test [2] (setting [9]), 1.26; in test [2] (setting [10]), 1.17; in test [2] (setting [8]), 1.28. Also, the vinit is 32.036 and 31.782 in test [1] (setting [5]); 12.386 and 12.902 and 13.544 in test [2] (setting [9]); 30.668 and 30.24 and 32.808 in test [2] (setting [10]); 11.3 in test [2] (setting [8]). The “vinit, avrg.” value in test [2] (setting [9]) is reported as 12.944. The Ki in test [2] (substrate 100 µM) turned out to be 482 µM; in test [2] (substrate 200 µM), 538 µM.

For `COC(=O)c1c(C)nc(C2CC2)[nH]c1=O` [SX-F1], in test [1] (setting [5]), the “V0 / Vi” value came out at 1.06; the vinit is 25.964 and 29.418. In test [2] (setting [8]), the “V0 / Vi” value amounted to 0.96; the vinit was 17.6 and 18.945.

In the case of `N#CC1CCS(=O)(=O)C1` (stereo not shown) [SX-F2], the “V0 / Vi” value in test [1] (setting [5]) and in test [2] (setting [8]) was 0.97 in each case. In addition, the vinit in test [1] (setting [5]) is 30.436 and 30.255; in test [2] (setting [8]) it was 17.745 and 18.291.

For `O=C(O)c1cnc(-c2ccccc2)s1` [SX-F3], the “V0 / Vi” value in test [1] (setting [3]) came to 1.08; in test [1] (setting [4]), 1.05; in test [1] (setting [5]), 1.06; in test [2] (setting [8]), 1.02. Besides, the “vinit, avrg.” value was 24.620 in test [1] (setting [3]) and 32.167 in test [1] (setting [4]). The vinit was 23.206 and 25.134 and 25.52 in test [1] (setting [3]); 32.686 and 32.577 and 31.24 in test [1] (setting [4]); 26.545 and 28.873 in test [1] (setting [5]); 17.382 and 16.873 in test [2] (setting [8]). The Ki in test [1] (setting [6]) came to 297 µM; in test [1] (setting [7]), 245 µM.

For the compound `N#CCCN1CCc2ccccc21` [SX-F4], the “V0 / Vi” value in test [1] (setting [5]) and in test [2] (setting [8]) was 1.01 throughout. The vinit in test [1] (setting [5]) is 31.2 and 28.109; in test [2] (setting [8]), 16.857 and 17.357.

For the compound `O=C(O)c1cccc(Nc2ncccn2)c1` [SX-F5], the “V0 / Vi” value in test [1] (setting [5]) is recorded as 1.09; in test [2] (setting [8]), 0.98. In addition, the vinit in test [1] (setting [5]) is 26.836 and 28; in test [2] (setting [8]), 17.143 and 18.071.

Regarding `O=C(Nc1ccccc1)C1CC1` [SX-F6], in test [1] (setting [5]), the “V0 / Vi” value is 0.98; the vinit is 29.527 and 31.309. In test [2] (setting [8]), the “V0 / Vi” value is listed as 0.98; the vinit is 18 and 17.071.

With `Oc1nnc(-c2ccccc2)o1` [SX-F7], in test [1] (setting [5]), the “V0 / Vi” value was 0.99; the vinit is 31.527 and 31.273. In test [2] (setting [8]), the “V0 / Vi” value was 1.07; the vinit was 16.182 and 17.345.

`Cc1nccn1Cc1cccc(C#N)c1` [SX-F8]: the “V0 / Vi” value in test [1] (setting [5]) is recorded as 0.91; in test [2] (setting [8]), 0.98. Further, the vinit in test [1] (setting [5]) is 34 and 33.891; in test [2] (setting [8]), 18.582 and 18.

With `CC(CN)N1CCc2sccc2C1` (stereo not shown) [SX-F9], in test [1] (setting [5]), the “V0 / Vi” value was found to be 1.01; the vinit was 34.291 and 27.273. In test [2] (setting [8]), the “V0 / Vi” value stood at 0.97; the vinit is 18.364 and 18.582.

On to `NCC1(c2ccccc2)CCOCC1` [SX-F10], for which, in test [1] (setting [5]), the “V0 / Vi” value worked out at 0.89; the vinit is 36.218 and 34.182. In addition, in test [2] (setting [8]), the “V0 / Vi” value is listed as 0.94; the vinit was 14.6 and 16.3.

Regarding `Oc1cnc(-c2ccccc2)nc1` [SX-F11], in test [1] (setting [5]), the “V0 / Vi” value is 1.02; the vinit was 30.836 and 30.8. Besides, in test [2] (setting [8]), the “V0 / Vi” value stood at 1.00; the vinit was 14.672 and 14.2.

With `Cc1cc(C)c2c(=O)[nH]n(C)c2n1` [SX-F12], the “V0 / Vi” value in test [1] (setting [5]) came out at 0.97; in test [2] (setting [8]), 1.09. The vinit in test [1] (setting [5]) is 31.745 and 32.764; in test [2] (setting [8]), 11.4 and 15.

In the case of `COc1ccc(C2=CCNCC2)cc1` [SX-G1], in test [1] (setting [5]), the “V0 / Vi” value was 1.03; the vinit is 31.055 and 32.691. In test [2] (setting [8]), the “V0 / Vi” value worked out at 0.93; the vinit is 19.4 and 17.2.

On to `Cn1c(CO)nc2ccccc21` [SX-G2], for which, in test [1] (setting [5]), the “V0 / Vi” value is 1.00; the vinit was 32.764 and 33.018. For the same compound, in test [2] (setting [8]), the “V0 / Vi” value came to 0.96; the vinit was 18 and 17.3.

For the compound `CN(C)c1cc(CN)ccn1` [SX-G3], the results for the “V0 / Vi” value in test [1] (setting [5]) and in test [2] (setting [8]) were 0.92 and 0.93, respectively. For the same compound, the vinit is 35.564 and 35.891 in test [1] (setting [5]); 17.9 and 18.5 in test [2] (setting [8]).

For `O=C(NC1CC1)c1ccccc1O` [SX-G4], in test [1] (setting [5]), the “V0 / Vi” value is reported as 1.01; the vinit is 31.745 and 33.345. In test [2] (setting [8]), the “V0 / Vi” value was found to be 0.96; the vinit is 17.5 and 17.8.

As to `c1ccc2sc(N3CCNCC3)nc2c1` [SX-G5], in test [1] (setting [5]), the “V0 / Vi” value amounted to 1.04; the vinit was 31.164 and 32.073. Besides, in test [2] (setting [8]), the “V0 / Vi” value is 1.01; the vinit was 16.1 and 17.4.
